According to paper PMC5423974 (European Journal of Clinical Pharmacology, 2017):
Where “and” joins values, the source holds several entries; their conditions need not be identical. Equal entries are not always repeated. Where two headings read alike, the source gives them in different places. Marks after values point to notes of the source that are not given here.

Test: Pooled analysis of non-compartmental plasma PK of single-dose selumetinib in healthy subjects, by ethnicity
Type: in vivo, human
Conditions: for DN AUC / DN AUC(0–12) / DN Cmax: geometric mean (%CV)
Procedure: All the studies included in the pooled analysis were conducted in accordance with the ethical principles outlined in the Declaration of Helsinki and the International Council on Harmonization Good Clinical Practice. Written informed consent was obtained from all subjects prior to any study-related procedures.
The pooled analysis database was constructed using data collected in 10 studies (Online Resource 1). PK data were taken from Study 86 (Asian study) and Studies 66, 69, 71, 78, 80, 81, 82, 83 and 85 (Western studies), while pharmacogenetic data were obtained from Study 86 (Asian study) and Studies 66 and 83 (Western studies). Informed consent for genetic assessment was as follows: Study 66, 21 of 27 volunteers gave consent (one of these volunteers discontinued treatments); Study 83, all 26 volunteers gave consent; Study 86, 45 of 72 volunteers gave consent.
Further inclusion criteria for the database included fasted subjects dosed with the selumetinib capsule formulation used for Phase III. This meant exclusion of data from other oral formulations used in study 78 and intravenous formulation used in study 80. Data were included solely from study arms where there was an absence of other treatments (e.g. rifampicin, fluconazole) and from subjects with normal renal and hepatic function.
A merged dataset containing subject identifier, non-compartmental PK parameters and demographics was constructed.
The PK parameters AUC, AUC0–12 and Cmax were normalized (abbreviated as DN) for each subject, by dividing the specific PK parameter by the nominal dose (in mg units) and for dose per kg of body weight (abbreviated as DWN) using the following formula: PK parameter value / (nominal dose in mg units / subjects baseline body weight in kg units).
The majority of subjects in the Western studies were of White ethnicity, thus this formed the reference category for comparison. Statistical comparisons of selumetinib PK were undertaken between the following ethnic groups: Western vs All Asian; White vs Black; White vs All Asian; White vs Japanese; White vs non-Japanese Asian; White vs Indian. The comparisons were performed by fitting multivariate models to the PK parameters of interest (e.g. dose-normalized AUC and Cmax), with a stepwise backward selection of the covariates including ethnicity, age, sex, and weight.
Bioanalysis was performed by Covance, USA. […] After addition of deuterated internal standard, samples were extracted by protein precipitation by the addition of 4 volumes of methanol:acetonitrile. After centrifugation, the supernatants were […] to dryness under nitrogen at 50°C and reconstituted in methanol;water before analysis. Extraction recovery was approximately 93%. […] The typical liquid chromatography system was a Prominence SIL-20AC (Shimadzu, Tokyo, Japan). A Phenomenex Luna C18 column was used and maintained at 30°C. A gradient mobile phase system was used with 0.1% formic acid in water (A) or acetonitrile (B) with a flow rate of 0.500 mL/min and the gradient running from 25% B to 65% B over 2 minutes then increasing to 95% B over 0.1 minutes and held for 0.5 minutes before re-equilibration. The mass spectrometer used was an API 5000 or 5500 triple quadruple mass spectrometer (AB Sciex, Foster City, CA, USA). This was run in positive electrospray, multiple reaction monitoring, with an ionspray voltage of 5500 V and TurboIonSpray temperature of 600°C with transitions of 459.0/397.2 monitored.

[1] = All Asian (N = 72), healthy subjects, single dose, doses pooled
[2] = All Asian group compared with Western group
[3] = Black (N = 87), healthy subjects, single dose, doses pooled
[4] = Indian (N = 9), healthy subjects, single dose
[5] = Japanese (N = 27), healthy subjects, single dose, doses pooled
[6] = Western (N = 236), healthy subjects, single dose, doses pooled
[7] = White (N = 149), healthy subjects, single dose, doses pooled
[8] = non-Japanese Asian (N = 36), healthy subjects, single dose, doses pooled
[9] = non-Japanese Asian compared to White

DN Cmax [1]: 26.3 (30.9) ng/mL/mg
tmax (All Asian (N = 72), healthy subjects, single dose, median (min, max)): 1.0 (1, 4) h
percentage by which dose-normalized AUC is higher [2]: 35%
percentage by which dose-normalized Cmax is higher [2]: 39%
dose-normalized selumetinib exposure higher (Asian subjects compared with Western subjects, single dose 25 to 75 mg): 35–39%
DN Cmax [3]: 16.9 (39.6) ng/mL/mg
tmax (Black (N = 87), healthy subjects, single dose, median (min, max)): 1.0 (1, 4) h
DN Cmax [4]: 28.1 (16.0) ng/mL/mg
tmax (Indian (N = 9), healthy subjects, single dose, median (min, max)): 1.0 (1, 2) h
percentage increase in geomean dose-normalized AUC (Indian compared to White): 22%
percentage increase in geomean dose-normalized Cmax (Indian compared to White): 41%
DN Cmax [5]: 28.7 (31.0) ng/mL/mg
tmax (Japanese (N = 27), healthy subjects, single dose, median (min, max)): 1.0 (1, 3) h
percentage increase in geomean dose-normalized AUC (Japanese compared to White): 51%
percentage increase in geomean dose-normalized Cmax (Japanese compared to White): 45%
t1/2 (Western (N = 235), healthy subjects, single dose, arithmetic mean (SD)): 9.1 (2.91)^‡ h
DN Cmax [6]: 17.4 (35.6) ng/mL/mg
tmax (Western (N = 236), healthy subjects, single dose, median (min, max)): 1.0 (1, 4) h
DN Cmax [7]: 17.7 (33.2) ng/mL/mg
tmax (White (N = 149), healthy subjects, single dose, median (min, max)): 1.0 (1, 4) h
half-life (human, plasma, oral, 25 mg, Indian (N = 9), healthy subjects, single dose, arithmetic mean (SD)): 9.5 h
half-life (human, plasma, oral, All Asian (N = 72), healthy subjects, single dose, arithmetic mean (SD)): 10.4 h
half-life (human, plasma, oral, Black (N = 87), healthy subjects, single dose, arithmetic mean (SD)): 8.7 h
half-life (human, plasma, oral, Japanese (N = 27), healthy subjects, single dose, arithmetic mean (SD)): 11.5 h
half-life (human, plasma, oral, White (N = 148), healthy subjects, single dose, arithmetic mean (SD)): 9.3 h
tmax (human, plasma, oral, all ethnic groups, read-out: median tmax): 1 to 1.6 h
half-life (human, plasma, oral, non-Japanese Asian (N = 36), healthy subjects, single dose, arithmetic mean (SD)): 9.8 h
tmax (human, plasma, oral, non-Japanese Asian (N = 36), healthy subjects, single dose, median (min, max), read-out: tmax): 1.6 h
DN Cmax [8]: 24.3 (32.3) ng/mL/mg
differences in the geomeans for dose-normalized AUC and dose-normalized Cmax (non-Japanese Asian and Indian against Japanese): 2 to 18%
percentage increase in geomean dose-normalized AUC [9]: 37%
percentage increase in geomean dose-normalized Cmax [9]: 20%
SMILES: Cn1cnc2c(F)c(Nc3ccc(Br)cc3Cl)c(C(=O)NOCCO)cc21 [selumetinib, Selumetinib]
DN AUC [1]: 79.8 ng.h/mL/mg and 79.8 (23.6) ng.h/mL/mg
DN AUC(0–12) [1]: 61.7 ng.h/mL/mg and 61.7 (24.6) ng.h/mL/mg
DN AUC [3]: 53.4 ng.h/mL/mg and 53.4 (26.4) ng.h/mL/mg
DN AUC(0–12) [3]: 43.3 ng.h/mL/mg and 43.3 (26.7) ng.h/mL/mg
DN AUC [4]: 69.5 ng.h/mL/mg and 69.5 (16.7) ng.h/mL/mg
DN AUC(0–12) [4]: 53.5 ng.h/mL/mg and 53.5 (19.6) ng.h/mL/mg
DN AUC [5]: 84.8 ng.h/mL/mg and 84.8 (21.0) ng.h/mL/mg
DN AUC(0–12) [5]: 65.7 ng.h/mL/mg and 65.7 (24.1) ng.h/mL/mg
DN AUC (Western (N = 235), healthy subjects, single dose, doses pooled): 52.4 ng.h/mL/mg and 52.4 (24.9)^‡ ng.h/mL/mg
DN AUC(0–12) [6]: 42.9 ng.h/mL/mg and 42.9 (25.1) ng.h/mL/mg
DN AUC (White (N = 148), healthy subjects, single dose, 25-75 mg doses pooled): 51.9 ng.h/mL/mg and 51.9 (23.9)^† ng.h/mL/mg
DN AUC(0–12) [7]: 42.7 ng.h/mL/mg and 42.7 (24.2) ng.h/mL/mg
DN AUC [8]: 78.9 ng.h/mL/mg and 78.9 (25.4) ng.h/mL/mg
DN AUC(0–12) [8]: 61.1 ng.h/mL/mg and 61.1 (24.6) ng.h/mL/mg
